Data on two molecules can be found in US20040023924A1, “Use of xyloglucan polymers and oligomers, and derivative compounds, as phytosanitary products and biofertilizers” (priority 2000, published 2004).

The test system of experiment [1] is Phospholipase D (E.C: 3.1.4.4). The experiment is described as follows: Elicitation of phospholipase D activity (NBD-PE fluorescence). The class given is cell-based, Acer pseudoplatanus L. To be noted: for Optimal Plase D response (100% = non-elicited cells): at the optimal concentration. The source says: Vegetable material: Acer pseudoplatanus L. cells in Suspension
Phospholipase D (E.C: 3.1.4.4) (Plase D) activity: this is a phosphatidylcholine phosphatidohydrolase which releases the O-R3 group, according to the diagram below. To the extent that O-R3 is marked (a fluorochrome for example), quantifying this group is equivalent to assaying Plase D activity. For the experiments the substrate used is phosphatidylcholine conjugated to a fluorochrome, i.e. the product nitrobenzoxadiazole phosphoethanolamine (NBD-PE). The retained excitation and emission wavelengths of the fluorochrome are 460 nm and 534 nm respectively. [drawing 5]
Principle: assaying Plase D activity is equivalent to estimating the fluorescence variation at 534 nm of a reaction medium with a spectrofluorimeter (Perkin Elmer).
Test: the reaction medium in a microtitration plate well is as follows: 1.3 10^7 Acer pseudoplatanus L. cells are incubated in a 50 mM HEPES buffer, pH 6.8 enriched with CaCl2 (1 μM), ATP (2 μM), octyl-D-glucoside 50 μM, GTP (6 μM) in the presence of the NBD-PE substrate (4 μM), in the presence or absence of an elicitor (0-100 nM): 2′-fucosyl-lactose (FL), compound A; XXFGol, compound B, in the presence or not in the presence of a methyl jasmonate effector (0-5 nM). The Plase D activity assay is carried out by measuring the fluorescence at 534 nm.
Evaluation of the experimental data. For each sample at least three kinetics are recorded; the Plase D activity is given by the slope of the regression curve. The results are expressed by Δ F534 min^−1. One point on the graph corresponds to the linear regression treatment of at least 2 kinetic curves originating from 2 different samples.
The Plase D elicitation response is evaluated according to the fluorescence variation at […]; the 100% reference value corresponds to the fluorescence in the controls (non-elicited cells)

Experiment [2] has as its system Rubus fruticosus protoplasts. The experiment is described as follows: Elicitation of an oxidative burst: generation of H2O2 (pyranine quenching). Format: cell-based. To be noted: 25° C. The procedure:
Preparation of Rubus fruticosus protoplasts according to Vargas-Rechia (1998). The protoplast yield is of the order of 70 to 85% of the initial number of cells used; the viability of the protoplasts, of the order of 90 to 95%, was checked using Evans blue indicator.
H2O2 assay according to Apostol et al. (1989). Incubation at different temperatures of 1.10^6 protoplasts in microplate wells in the presence of 2 μM pyranine λex 405 nm, λcm 512 nm), of the elicitor (0 to 100 μM): 2′-fucosyl-lactose (compound A), xyloglucan XXFGol, corresponding to the reduced form of fucosylated nonasaccharide of which the sugar X4 is in reduced form (compound B). The variations in pyranine fluorescence (ΔF512 min^−1) allow H2O2 assay.
Evaluation of the experimental data: The reaction rate is given by (ΔF512 min^−1). At least three kinetic curves are plotted per sample and per experimental condition. One point on the graph corresponds to the slope of the regression curve deduced from at least 6 kinetic curves.
The oxidative “burst” is evaluated according to the “quenching ” of the pyranine at 25° C.; the 100% reference value corresponds to the fluorescence in the controls (non-elicited protoplast suspensions)

The subject of experiment [3] is β-D-xylosidase (EC 3.2.1.37). The experiment is described as follows: Induction of a β-D-xylosidase response in elicited cells. To be noted: 50 nM elicitor; for β-D-xylosidase response R (activity in elicited cells/non-elicited control cells), maximal: 15 minutes; for β-D-xylosidase response: 42 hours; for β-D-xylosidase response R: after 1 hour. Format: cell-based, Acer pseudoplatanus L. The procedure: Vegetable material: Acer pseudoplatanus L Cells in Suspension
Test: 2.10^6 Acer pseudoplatanus L. cells were elicited under circular stirring (80 rpm), in 25 ml of culture medium (without 2,4-D) by 50 nM of 2′-fucosyl lactose (compound A) or 50 nM of methyl α-L-Fuc (1→2) β-D-Gal (1→2) β-D-Xyl trisaccharide (compound B)(synthesized according to Lopez et al., 1994) or for a variable time (0 to 42 hours) in the presence or not in the presence of an effector: cycloheximide (1 μM), okadaic acid (5 nM), staurosporine (500 nM), or boroglycine (500 nM). The elicitation experiment is stopped by putting the cells in ice. The cells recovered after decantation and taken up in approximately 1 ml of elicitation buffer are the subject of a specific protein extraction.
D-glycosylhydrolase extraction. The enzyme extracts are prepared from elicited or non-elicited cells. The cells are homogenized at 0° C. in Tris-HCl buffer (50 mM pH 7.2) containing 1 M of NaCl with a Vibracell™ Bioblock sonicator, maximum power, for 3 times 1 minute. The homogenates are centrifuged at 4° C. (12000 g, 15 minutes) then dialysed and concentrated on Ultrafree™ Millipore ultrafiltration units (cut-off threshold 10 kDa). The retentates, taken up in distilled water, are crude extracts.
β-D-xylosidase activity assay according to the protocol of Lee and Zeikus (1993) after incubation of the enzyme extracts (2 to 4 μg of proteins) in sodium acetate buffer (0.1 M, pH 5), at 40° C. for a variable time (90 to 210 minutes), in the presence of p-nitrophenyl β-D-xylopyranoside (p-NPX) substrate (7.3 μM). After addition of Na2CO3 (0.1 M), the products released are assayed by spectrophotometry at 410 nm.
Evaluation of the experimental data. At least 2 kinetics were carried out per sample, and per set of experiments. The reaction rate (ΔA410 minutes^−1 for example) is obtained by linear regression from 4 kinetic curves. The results are expressed by the ratio R (enzymatic activity in elicited cells/enzymatic activity in non-elicited control cells).

As to `C[C@@H]1O[C@@H](O[C@H]2[C@H](O[C@H]3[C@H](O)[C@@H](O)[C@H](O)O[C@@H]3CO)O[C@H](CO)[C@H](O)[C@@H]2O)[C@@H](O)[C@H](O)[C@@H]1O` [compound A, α-L-Fuc(1→2)β-D-Gal(1→4)β-D-Glc], in experiment [1], the “Elicitor concentration of optimal Plase D response” value is listed as 1 nM and the “Optimal Plase D response (100% = non-elicited cells)” value came to 244%. Also, the “Plase D elicitation: methyl jasmonate versus 2′-fucosyl lactose” value in experiment [1] (methyl jasmonate 0 to 5 nM, 2′-fucosyl lactose 1 nM, dose-dependent) is recorded as “antagonistic”. In addition, in experiment [2] (10 nM, 20° C., 15° C., 10° C.), the “Peroxide accumulation, effect of temperature” value is recorded as “lower at a low temperature”. Also, the “Elicitor dose of optimal response, generation of H2O2” value in experiment [2] (pyranine quenching) is 10 nM. For the same molecule, the “Optimal response, generation of H2O2 (100% = non-elicited controls)” value in experiment [2] (at the optimal dose) came out at 225%. Further, in experiment [3], the “β-D-xylosidase response R (activity in elicited cells/non-elicited control cells), maximal” value turned out to be 9; the β-D-xylosidase response entry is recorded as “no significant response”; the “β-D-xylosidase response R” value came out at 1.

In the case of `CO[C@@H]1OC[C@@H](O)[C@H](O)[C@H]1O[C@@H]1O[C@H](CO)[C@H](O)[C@H](O)[C@H]1O[C@@H]1O[C@@H](C)[C@@H](O)[C@@H](O)[C@@H]1O` [compound B, methyl α-L-Fuc (1→2)β-D-Gal (1→2)β-D-Xyl], in experiment [1], the “Elicitor concentration of optimal Plase D response” value is given as 1.7 nM and the “Optimal Plase D response (100% = non-elicited cells)” value is recorded as 230%. Further, in experiment [3], the “β-D-xylosidase response R (activity in elicited cells/non-elicited control cells), maximal” value was 5; the β-D-xylosidase response result is on record as “no significant response”; the “β-D-xylosidase response R” value worked out at 1.
